IC50 data for 11 compounds are collected here from PubChem BioAssay AID1250 (SRMLSC, 2008).

For this assay, the system named is BSR cells, Bluetongue virus CPE, ATP luminescence, 72 h. The assay is described as follows: antiviral protection against BTV-induced cell death – arbovirus, BSR cells, confirmation (AID 1250).

A word on the IC50: it is the midpoint of a concentration-inhibition curve. In the case of `O=c1[nH]n2c(=O)c3c([nH]c2c1N=Nc1cccc(C(F)(F)F)c1)CCCC3`, the IC50 is 19.5 µM. `CCc1cc(C(=O)O)c(NC(=O)/C=C/c2ccc(OC)c(OC)c2)s1`: the IC50 was 1.68 µM. With `O=c1oc(/C=C/c2ccccc2)nc2sc3c(c12)CCC3`, the IC50 is 8.92 µM. Take `C(=N\Nc1nc(-c2ccccc2)cs1)/c1cccs1`: the IC50 was 15.5 µM. Take `CC(C)c1ccc(-c2csc(NC(=O)c3cccs3)c2C(=O)O)cc1`: the IC50 is 11.1 µM. On to `CCOc1ccc(N=Nc2c(=O)[nH]n3c(=O)c4c([nH]c23)CCCC4)cc1`, for which the IC50 is 16.6 µM. Take `CCOc1ccc(-c2cc3nc(C4CCN(C(=O)OC(C)(C)C)CC4)c(C(=O)O)cn3n2)cc1`: the IC50 was 19.8 µM. `Cc1ccc(N2C(=O)/C(=C\c3ccc(C(C)C)cc3)N=C2SC2CCOC2=O)cc1` (stereo unspecified): the IC50 was 12.1 µM. Consider `CC(=O)Nc1cccc(Oc2ncnc3scc(-c4ccccc4)c23)c1`, for which the IC50 is 15.6 µM.

As for `O=C(CSc1nc(-c2ccccc2)nc2c1Cc1ccccc1O2)Nc1ccc(C(=O)O)cc1`, the IC50 is 17.5 µM. As to `COc1ccc(C2C=C(c3ccc(C)cc3)Nc3ncnn32)cc1` (stereo unspecified), the IC50 was 13 µM.
